Measured values: ChEMBL document CHEMBL1821577, “Discovery of GSK1997132B a novel centrally penetrant benzimidazole PPARγ partial agonist” (Bioorg Med Chem Lett, 2011)
pEC50: −log10 of the molar value.

Tests used:
[1] = biological target: T1, Peroxisome proliferator-activated receptor gamma (Homo sapiens, UniProt P37231); experiment: Partial agonist activity at human PPARgamma by luciferase reporter gene assay; type: functional
T1 sequence (P37231 whole entry): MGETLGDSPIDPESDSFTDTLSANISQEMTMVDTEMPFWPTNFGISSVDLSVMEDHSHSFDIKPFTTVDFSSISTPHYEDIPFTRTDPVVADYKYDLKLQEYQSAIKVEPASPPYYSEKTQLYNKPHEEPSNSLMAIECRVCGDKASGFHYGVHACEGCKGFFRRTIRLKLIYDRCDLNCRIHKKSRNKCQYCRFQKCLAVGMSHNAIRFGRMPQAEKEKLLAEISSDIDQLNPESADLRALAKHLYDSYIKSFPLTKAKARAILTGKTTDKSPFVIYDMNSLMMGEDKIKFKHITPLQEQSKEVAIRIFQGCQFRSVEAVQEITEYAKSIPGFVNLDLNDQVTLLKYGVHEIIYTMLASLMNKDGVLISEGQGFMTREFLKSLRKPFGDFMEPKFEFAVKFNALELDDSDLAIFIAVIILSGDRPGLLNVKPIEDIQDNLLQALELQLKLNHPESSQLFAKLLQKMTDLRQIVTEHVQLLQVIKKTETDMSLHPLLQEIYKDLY

[2] = biological target: T2, Peroxisome proliferator-activated receptor gamma (Homo sapiens) (UniProt P37231); experiment: Activity at human PPARgamma by luciferase reporter gene assay; parameters: concentration or dose not given beside the values
T2 sequence (whole entry): T1 sequence (P37231 whole entry)

Liver microsomes [3] = experiment: Intrinsic clearance in human liver microsome; type: ADME
Liver microsomes [4] = experiment: Intrinsic clearance in rat liver microsome; type: ADME
Rattus norvegicus [5] = experiment: Blood clearance at steady state in rat at 2 mg/kg/h, iv; type: ADME, organism-based; parameters: route intravenous; details: in vivo
[6] = Ratio of drug uptake in brain to blood at steady state in rat at 2 mg/kg/h, iv; type: ADME, organism-based; parameters: route intravenous
Brain [7] = experiment: Drug uptake in rat brain at steady state at 2 mg/kg/h, iv; type: ADME, organism-based; parameters: route intravenous; details: in vivo, read-out: Drug uptake
[8] = biological target: T3, Peroxisome proliferator-activated receptor delta (Homo sapiens, UniProt Q03181); experiment: Partial agonist activity at PPARdelta by luciferase reporter gene assay; type: functional
T3 sequence (Q03181 whole entry): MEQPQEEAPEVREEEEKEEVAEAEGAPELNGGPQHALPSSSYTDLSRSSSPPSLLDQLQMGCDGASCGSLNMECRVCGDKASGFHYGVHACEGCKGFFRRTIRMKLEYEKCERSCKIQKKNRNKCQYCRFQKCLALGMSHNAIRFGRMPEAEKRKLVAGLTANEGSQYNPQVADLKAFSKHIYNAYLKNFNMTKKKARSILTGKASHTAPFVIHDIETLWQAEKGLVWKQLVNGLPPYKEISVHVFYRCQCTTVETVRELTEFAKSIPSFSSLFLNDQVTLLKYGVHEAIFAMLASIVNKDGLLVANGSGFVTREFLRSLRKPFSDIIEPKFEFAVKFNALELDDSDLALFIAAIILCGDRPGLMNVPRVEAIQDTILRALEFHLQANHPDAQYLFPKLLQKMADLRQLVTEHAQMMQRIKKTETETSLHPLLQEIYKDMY

Liver [9] = experiment: Intrinsic clearance in mouse liver microsome; type: ADME; details: microsomes
Mus musculus = experiment: Blood clearance in mouse at 1 mg/kg, iv; type: ADME, organism-based; parameters: dose 1 mg/kg, route intravenous; details: in vivo
[10] = biological target: T4, Peroxisome proliferator-activated receptor alpha (Homo sapiens, UniProt Q07869); experiment: Partial agonist activity at PPARalpha by luciferase reporter gene assay; type: functional
T4 sequence (Q07869 whole entry): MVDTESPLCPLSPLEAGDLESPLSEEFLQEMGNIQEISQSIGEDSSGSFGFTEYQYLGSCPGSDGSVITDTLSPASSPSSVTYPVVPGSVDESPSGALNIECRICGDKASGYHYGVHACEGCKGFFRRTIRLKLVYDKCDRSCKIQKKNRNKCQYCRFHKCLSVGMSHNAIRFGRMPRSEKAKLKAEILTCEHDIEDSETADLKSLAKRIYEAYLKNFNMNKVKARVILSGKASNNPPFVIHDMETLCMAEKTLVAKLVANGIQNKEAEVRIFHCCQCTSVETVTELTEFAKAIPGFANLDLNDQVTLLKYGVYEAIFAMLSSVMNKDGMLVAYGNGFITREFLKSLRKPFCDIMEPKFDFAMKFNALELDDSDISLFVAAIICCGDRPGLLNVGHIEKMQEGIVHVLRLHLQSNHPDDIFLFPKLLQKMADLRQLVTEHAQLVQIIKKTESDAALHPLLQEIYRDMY

Liver [11] = experiment: Intrinsic clearance in rat liver S9 fraction; type: ADME, subcellular
Rattus norvegicus [12] = experiment: Blood clearance in rat at 1 mg/kg, iv; type: ADME, organism-based; parameters: dose 1 mg/kg, route intravenous; details: in vivo
Brain [13] = experiment: Drug uptake in rat brain at 3 mg/kg, po; type: ADME, organism-based; parameters: dose 3 mg/kg, route oral; details: in vivo, read-out: Drug uptake
[14] = Ratio of drug uptake in brain to blood in rat at 3 mg/kg, po; type: ADME, organism-based; parameters: dose 3 mg/kg, route oral

Compound: CC[C@H](NC(=O)c1ccc2c(c1)nc(C)n2Cc1ccc(Cl)c(Cl)c1)c1ccccc1
- pEC50 [1]: 6.60
- Activity [2]: 21%

Compound: CC[C@@H](NC(=O)c1ccc2c(c1)ncn2Cc1ncc(Cl)cc1Cl)c1ccccc1
- pEC50 [1]: 9.30
- Activity [2]: 76%

Compound: CC[C@@H](NC(=O)c1ccc2c(c1)nc(C)n2Cc1ccc(S(C)(=O)=O)cc1)c1ccccc1
- pEC50 [1]: 5.30
- Activity [2]: 48%

Compound: CC[C@@H](NC(=O)c1ccc2c(c1)nc(C(C)C)n2Cc1ccc(Cl)c(Cl)c1)c1ccccc1
- pEC50 [1]: 6.40
- Activity [2]: 42%

Compound: Cc1nc2cc(C(=O)NCc3ccccc3)ccc2n1Cc1ccc(Cl)c(Cl)c1
- pEC50 [1]: 6.40
- Activity [2]: 83%

Compound: CC[C@@H](NC(=O)c1ccc2c(c1)ncn2Cc1ccc(Cl)cc1Cl)c1ccccc1
- pEC50 [1]: 9.30
- Activity [2]: 77%

Compound: CC[C@@H](NC(=O)c1ccc2c(c1)nc(C)n2Cc1ccc(C(N)=O)cc1)c1ccccc1
- pEC50 [1]: 5.00
- Activity [2]: 17%

Compound: CC[C@@H](NC(=O)c1ccc2c(c1)ncn2Cc1ccc(Cl)cn1)c1ccccc1
- pEC50 [1]: 7.40
- Activity [2]: 80%

Compound: CC[C@@H](NC(=O)c1ccc2c(c1)nc(C(F)(F)F)n2Cc1ccc(Cl)c(Cl)c1)c1ccccc1
- pEC50 [1]: 6.60
- Activity [2]: 60%

Compound: CC[C@@H](NC(=O)c1ccc2c(c1)ncn2Cc1ccc(F)cc1F)c1ccccc1
- CL (Liver microsomes [3]): 0.5 mL/min/g
- CL (Liver microsomes [4]): 3.7 mL/min/g
- pEC50 [1]: 8.80
- clearance (Rattus norvegicus [5]): 107 mL/min/kg
- Kp [6]: 0.59
- concentration (Brain [7]): 455 nM
- Activity [2]: 73%

Compound: CC[C@@H](NC(=O)c1ccc2c(c1)ncn2Cc1ccccc1OC)c1ccccc1
- pEC50 [1]: 8.30
- Activity [2]: 75%

Compound: CC[C@@H](NC(=O)c1ccc2c(c1)nc(C1CC1)n2Cc1ccc(Cl)c(Cl)c1)c1ccccc1
- pEC50 [1]: 6.90
- Activity [2]: 58%

Compound: Cc1nc2cc(C(=O)N[C@@H](C)c3ccccc3)ccc2n1Cc1ccc(Cl)c(Cl)c1
- pEC50 [1]: 6.20
- Activity [2]: 50%

Compound: CC[C@@H](NC(=O)c1ccc2c(c1)ncn2Cc1ccccc1S(C)(=O)=O)c1ccccc1
- pEC50 [1]: 6.40
- Activity [2]: 73%

Compound: CCc1nc2cc(C(=O)N[C@H](CC)c3ccccc3)ccc2n1Cc1ccc(Cl)c(Cl)c1
- pEC50 [1]: 6.70
- Activity [2]: 65%

Compound: CC[C@@H](NC(=O)c1ccc2c(c1)ncn2Cc1ccccc1F)c1ccccc1
- pEC50 [1]: 8.10
- Activity [2]: 80%

Compound: CC[C@@H](NC(=O)c1ccc2c(c1)nc(C)n2Cc1ccc(F)cc1)c1ccccc1
- pEC50 [1]: 6.80
- Activity [2]: 74%

Compound: CC[C@@H](NC(=O)c1ccc2c(c1)nc(C)n2Cc1ccccc1Cl)c1ccccc1
- pEC50 [1]: 7.30
- Activity [2]: 80%

Compound: CC[C@@H](NC(=O)c1ccc2c(c1)ncn2Cc1ccc(Cl)cc1)c1ccccc1
- pEC50 [1]: 8.50
- Activity [2]: 74%

Compound: CC[C@@H](NC(=O)c1ccc2c(c1)ncn2Cc1ccc(Cl)cc1F)c1ccccc1
- pEC50 [1]: 9.10
- Activity [2]: 74%

Compound: CCC(NC(=O)c1ccc2c(c1)nc(C)n2Cc1ccc(Cl)c(Cl)c1)c1ccccc1 (stereo not given)
- pEC50 [8]: < 5.00
- CL (Liver [9]): 1.75 mL/min/g
- CL (Liver microsomes [3]): 0.5 mL/min/g
- CL (Liver microsomes [4]): 2.5 mL/min/g
- pEC50 [1]: 7.30
- Activity [2]: 64%
- clearance (Mus musculus): 736 mL/min/kg
- pEC50 [10]: < 5.00

Compound: CC[C@@H](NC(=O)c1ccc2c(c1)ncn2Cc1ccncc1)c1ccccc1
- pEC50 [1]: 6.10
- Activity [2]: 63%

Compound: CC[C@@H](NC(=O)c1ccc2c(c1)ncn2Cc1ccc(Cl)c(Cl)c1)c1ccccc1
- CL (Liver microsomes [3]): 0.6 mL/min/g
- CL (Liver microsomes [4]): 3.3 mL/min/g
- pEC50 [1]: 8.60
- clearance (Rattus norvegicus [5]): 84 mL/min/kg
- Kp [6]: 0.71
- CL (Liver [11]): 10 mL/min/g
- concentration (Brain [7]): 655 nM
- Activity [2]: 71%

Compound: CC[C@@H](NC(=O)c1ccc2c(c1)nc(C)n2Cc1ccc(Cl)cc1)c1ccccc1
- pEC50 [1]: 7.50
- Activity [2]: 66%

Compound: Cc1nc2cc(C(=O)N[C@H](C)c3ccccc3)ccc2n1Cc1ccc(Cl)c(Cl)c1
- clearance (Rattus norvegicus [12]): 75 mL/min/kg
- CL (Liver microsomes [3]): 0.5 mL/min/g
- CL (Liver microsomes [4]): 1.4 mL/min/g
- pEC50 [1]: 7.30
- CL (Liver [11]): 8.3 mL/min/g
- concentration (Brain [13]): 12 nM
- Activity [2]: 77%
- Kp [14]: 0.29

Compound: CC[C@@H](NC(=O)c1ccc2c(c1)ncn2Cc1ccc(F)c(Cl)c1)c1ccccc1
- pEC50 [1]: 8.20
- Activity [2]: 85%

Compound: CC[C@@H](NC(=O)c1ccc2c(c1)ncn2Cc1ccccn1)c1ccccc1
- pEC50 [1]: 6.90
- clearance (Rattus norvegicus [5]): 78 mL/min/kg
- Kp [6]: 0.2
- concentration (Brain [7]): 228 nM
- Activity [2]: 59%

Compound: CC[C@@H](NC(=O)c1ccc2c(c1)nc(C)n2Cc1cccc(Cl)c1)c1ccccc1
- pEC50 [1]: 7.10
- Activity [2]: 76%

Compound: CCC(=O)c1nc2cc(C(=O)N[C@H](CC)c3ccccc3)ccc2n1Cc1ccc(Cl)c(Cl)c1
- pEC50 [1]: 7.10
- Activity [2]: 75%

Compound: CC[C@@H](NC(=O)c1ccc2c(c1)nc(C)n2Cc1ccc(Cl)c(Cl)c1)c1ccccc1
- pEC50 [1]: 7.40
- Activity [2]: 75%

Compound: CC[C@@H](NC(=O)c1ccc2c(c1)ncn2Cc1cccnc1)c1ccccc1
- pEC50 [1]: 6.30
- Activity [2]: 74%

Compound: CC[C@@H](NC(=O)c1ccc2c(c1)ncn2Cc1ncccc1Cl)c1ccccc1
- pEC50 [1]: 7.80
- Activity [2]: 81%
